Measured values from patent US10758534B2 (Vertex Pharmaceuticals Incorporated, priority 2014, dated 2020).

Target: T1, F508del (Homo sapiens, UniProt P13569, DEL508-508)
T1 construct: expressed in transfected cells
Experiment: Protocol 2: FRET membrane potential optical assay (VIPR), identification of correction compounds
Format: cell-based
Details: F508del CFTR modulator activity; compounds of Table 1; read-out: EC30
Procedure, shortened: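 Correction of the F508del trafficking defect is scored as forskolin (10 μM)/genistein (20 μM)-stimulated Cl^− efflux in NIH3T3 mouse fibroblasts after a 16 hr, 37° C. compound exposure. Depolarization was followed optically using voltage-sensing FRET dyes.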

T1 sequence (P13569 with tags, fused parts or gaps DEL508-508): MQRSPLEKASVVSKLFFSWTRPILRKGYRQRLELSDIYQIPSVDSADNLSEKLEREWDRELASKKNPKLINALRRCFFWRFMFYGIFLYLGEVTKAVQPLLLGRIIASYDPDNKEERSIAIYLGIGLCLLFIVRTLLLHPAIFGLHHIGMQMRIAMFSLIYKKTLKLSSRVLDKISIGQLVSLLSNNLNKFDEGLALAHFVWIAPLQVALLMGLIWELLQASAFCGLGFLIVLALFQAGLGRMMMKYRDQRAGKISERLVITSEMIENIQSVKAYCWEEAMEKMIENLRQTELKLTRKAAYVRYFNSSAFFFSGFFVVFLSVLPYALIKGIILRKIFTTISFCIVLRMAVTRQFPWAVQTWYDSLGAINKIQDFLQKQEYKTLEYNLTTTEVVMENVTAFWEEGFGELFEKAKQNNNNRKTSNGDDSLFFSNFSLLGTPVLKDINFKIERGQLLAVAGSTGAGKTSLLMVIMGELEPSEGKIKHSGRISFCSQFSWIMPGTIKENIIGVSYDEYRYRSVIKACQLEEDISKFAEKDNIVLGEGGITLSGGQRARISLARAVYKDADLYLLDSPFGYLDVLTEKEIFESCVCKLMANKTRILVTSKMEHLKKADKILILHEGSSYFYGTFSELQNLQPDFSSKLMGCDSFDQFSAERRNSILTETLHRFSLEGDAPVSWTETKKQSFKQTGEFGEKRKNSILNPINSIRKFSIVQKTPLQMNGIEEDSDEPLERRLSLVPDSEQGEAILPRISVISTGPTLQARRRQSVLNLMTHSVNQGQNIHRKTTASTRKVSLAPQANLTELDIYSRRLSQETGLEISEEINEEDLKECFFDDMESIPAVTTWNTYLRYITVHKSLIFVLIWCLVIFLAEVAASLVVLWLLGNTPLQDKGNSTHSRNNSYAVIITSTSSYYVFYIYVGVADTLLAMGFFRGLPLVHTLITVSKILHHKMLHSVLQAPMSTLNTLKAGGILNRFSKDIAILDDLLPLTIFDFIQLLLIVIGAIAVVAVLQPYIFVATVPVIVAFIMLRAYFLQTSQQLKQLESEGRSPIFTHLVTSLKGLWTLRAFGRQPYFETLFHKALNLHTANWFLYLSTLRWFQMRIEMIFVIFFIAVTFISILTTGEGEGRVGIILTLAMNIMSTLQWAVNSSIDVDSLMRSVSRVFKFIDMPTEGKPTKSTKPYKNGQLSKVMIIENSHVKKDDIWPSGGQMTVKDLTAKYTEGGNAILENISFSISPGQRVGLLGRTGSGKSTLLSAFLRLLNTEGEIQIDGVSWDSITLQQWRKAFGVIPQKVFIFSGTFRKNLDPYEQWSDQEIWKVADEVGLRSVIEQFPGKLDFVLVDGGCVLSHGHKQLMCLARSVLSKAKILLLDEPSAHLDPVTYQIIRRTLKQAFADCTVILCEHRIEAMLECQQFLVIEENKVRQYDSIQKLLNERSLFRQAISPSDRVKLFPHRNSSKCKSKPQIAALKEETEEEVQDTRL

Compound	EC30 [nM]
CC(C)COc1cc(F)cc(-c2ccc(C(=O)NS(=O)(=O)c3cccc(N)n3)c(N3CCC(C)CC3(C)C)n2)c1 (stereo not drawn) [Compound 2581, N-[(6-amino-2-pyridyl)sulfonyl]-6-(3-fluoro-5-isobutoxy-phenyl)-2-(2,2,4-trimethyl-1-piperidyl)pyridine-3-carboxamide]	< 3000
COc1ccc2nc(N3C[C@@H](C)CC3(C)C)c(C(=O)NS(=O)(=O)c3cccc(N)n3)cc2c1 [Compound 2196, N-[(6-amino-2-pyridyl)sulfonyl]-6-methoxy-2-[(4S)-2,2,4-trimethylpyrrolidin-1-yl]quinoline-3-carboxamide]	< 3000
CC(C)COc1cc(F)cc(-c2ccc(C(=O)NS(=O)(=O)N3CCC(N)C3)c(N3CCCC3c3ccccc3)n2)c1 (single isomer, unassigned) [Compound 2477]	< 3000
CC1CN(c2ncccc2C(=O)NS(=O)(=O)c2cccc(OCc3ccc(F)cc3)n2)C(C)(C)C1 (stereo not drawn) [Compound 2524, N—[[6-[(4-fluorophenyl)methoxy]-2-pyridyl]sulfonyl]-2-(2,2,4-trimethylpyrrolidin-1-yl)pyridine-3-carboxamide]	< 3000
CCCOc1ccc(-c2cnc(N3CC(C)CC3(C)C)c(C(=O)NS(=O)(=O)c3cccc(N)n3)c2)cc1C (stereo not drawn) [Compound 2095, N-[(6-amino-2-pyridyl)sulfonyl]-5-(3-methyl-4-propoxy-phenyl)-2-(2,2,4-trimethylpyrrolidin-1-yl)pyridine-3-carboxamide]	< 3000
Cc1cccc(COc2cccc(S(=O)(=O)NC(=O)c3cccnc3N3CC(C)CC3(C)C)n2)n1 (stereo not drawn) [Compound 2294, N—[[6-[(6-methyl-2-pyridyl)methoxy]-2-pyridyl]sulfonyl]-2-(2,2,4-trimethylpyrrolidin-1-yl)pyridine-3-carboxamide]	3000 to 10000
Cc1ccc(F)c(-c2ccc(C(=O)NS(=O)(=O)N3CC[C@H](N)C3)c(N3C[C@@H](C)CC3(C)C)n2)c1 [Compound 2016, N-[(3S)-3-aminopyrrolidin-1-yl]sulfonyl-6-(2-fluoro-5-methyl-phenyl)-2-[(4S)-2,2,4-trimethylpyrrolidin-1-yl]pyridine-3-carboxamide]	3000 to 10000
CC1CN(c2ncccc2C(=O)NS(=O)(=O)c2cccc(OCc3cccc4ccccc34)n2)C(C)(C)C1 (stereo not drawn) [Compound 2270, N—[[6-(1-naphthylmethoxy)-2-pyridyl]sulfonyl]-2-(2,2,4-trimethylpyrrolidin-1-yl)pyridine-3-carboxamide]	< 3000
C[C@@H]1CN(c2nc(-c3ccc4[nH]ccc4c3)ccc2C(=O)NS(=O)(=O)c2cccnc2N)C(C)(C)C1 [Compound 2125, N-[(2-amino-3-pyridyl)sulfonyl]-6-(1H-indol-5-yl)-2-[(4S)-2,2,4-trimethylpyrrolidin-1-yl]pyridine-3-carboxamide]	< 3000
CC(C)COc1cc(F)cc(-c2ccc(C(=O)NS(=O)(=O)c3cccc(N)n3)c(N(C)CC3CCCCC3)n2)c1 [Compound 2289, N-[(6-amino-2-pyridyl)sulfonyl]-2-[cyclohexylmethyl(methyl)amino]-6-(3-fluoro-5-isobutoxy-phenyl)pyridine-3-carboxamide]	< 3000
CCC1(C)CC(C)CN1c1nc(-c2cc(F)cc(OCC(C)C)c2)ccc1C(=O)NS(=O)(=O)c1cccc(N)n1 (single isomer, unassigned) [Compound 2213, N-[(6-amino-2-pyridyl)sulfonyl]-2-(2-ethyl-2,4-dimethyl-pyrrolidin-1-yl)-6-(3-fluoro-5-isobutoxy-phenyl)pyridine-3-carboxamide]	< 3000
COc1cccc(Oc2cccc(S(=O)(=O)NC(=O)c3cccnc3N3CC(C)CC3(C)C)n2)c1OC (stereo not drawn) [Compound 2233, N—[[6-(2,3-dimethoxyphenoxy)-2-pyridyl]sulfonyl]-2-(2,2,4-trimethylpyrrolidin-1-yl)pyridine-3-carboxamide]	< 3000
COc1cccc(CCNc2cccc(S(=O)(=O)NC(=O)c3cccnc3N3CC(C)CC3(C)C)n2)c1 (stereo not drawn) [Compound 2465, N—[[6-[2-(3-methoxyphenyl)ethylamino]-2-pyridyl]sulfonyl]-2-(2,2,4-trimethylpyrrolidin-1-yl)pyridine-3-carboxamide]	< 3000

Same assay, conditions: Table 3; compounds of Table 1 as modulators of CFTR activity; protocol not stated

Compound	EC30
CC(C)Oc1ccc(-c2ccc(C(=O)NS(=O)(=O)c3cccc(N)n3)c(N3[C@@H](C)CC[C@@H]3C)n2)cn1 [Compound 687, N-[(6-amino-2-pyridyl)sulfonyl]-2-[(2S,5S)-2,5-dimethylpyrrolidin-1-yl]-6-(6-isopropoxy-3-pyridyl)pyridine-3-carboxamide]	++ (“++” means between 3 uM and 10 uM)
Cc1cc(C)c(Oc2nc(C(C)(C)C)ccc2C(=O)NS(=O)(=O)c2cccc3c2ccn3C)c(C)c1 [Compound 146, 6-tert-butyl-N-(1-methylindol-4-yl)sulfonyl-2-(2,4,6-trimethylphenoxy)pyridine-3-carboxamide]	+++ (“+++” means <3 uM)
Cc1cc(C)c(Oc2nc(C(C)(C)C)ccc2C(=O)NS(=O)(=O)c2cccn(C)c2=O)c(C)c1 [Compound 667, 6-tert-butyl-N-[(1-methyl-2-oxo-3-pyridyl)sulfonyl]-2-(2,4,6-trimethylphenoxy)pyridine-3-carboxamide]	+++ (“+++” means <3 uM)
Cc1cc(C)c(Oc2nc(C(C)(C)C)ccc2C(=O)NS(=O)(=O)c2cn(C)nc2N)c(C)c1 [Compound 41, N-(3-amino-1-methyl-pyrazol-4-yl)sulfonyl-6-tert-butyl-2-(2,4,6-trimethylphenoxy)pyridine-3-carboxamide]	+++ (“+++” means <3 uM)
CC1CN(c2nc(-c3ccncc3)ccc2C(=O)NS(=O)(=O)c2cccc(N)n2)C(C)(C)C1 (stereo not drawn) [Compound 643, N-[(6-amino-2-pyridyl)sulfonyl]-6-(4-pyridyl)-2-(2,2,4-trimethylpyrrolidin-1-yl)pyridine-3-carboxamide]	++ (“++” means between 3 uM and 10 uM)
CC(C)Oc1cc(-c2ccc(C(=O)NS(=O)(=O)c3ccn[nH]3)c(N3[C@H](C)CC[C@@H]3C)n2)ccc1Cl [Compound 701, 6-(4-chloro-3-isopropoxy-phenyl)-2-[(2S,5R)-2,5-dimethylpyrrolidin-1-yl]-N-(1H-pyrazol-5-ylsulfonyl)pyridine-3-carboxamide]	+++ (“+++” means <3 uM)
CC(C)COc1cc(F)cc(-c2ccc(C(=O)NS(=O)(=O)c3cccc(N)n3)c(N3C[C@H](C)C[C@H](C)C3)n2)c1 [Compound 371, N-[(6-amino-2-pyridyl)sulfonyl]-2-[(3R,5S)-3,5-dimethyl-1-piperidyl]-6-(3-fluoro-5-isobutoxy-phenyl)pyridine-3-carboxamide]	+++ (“+++” means <3 uM)
Cc1ccccc1C(C)Oc1nc(-c2cc(F)cc(OCC(C)C)c2)ccc1C(=O)NS(=O)(=O)c1cccc(N)n1 (stereo not drawn) [Compound 782, N-[(6-amino-2-pyridyl)sulfonyl]-6-(3-fluoro-5-isobutoxy-phenyl)-2-[1-(o-tolyl)ethoxy]pyridine-3-carboxamide]	+++ (“+++” means <3 uM)
COC1CCCN(c2nc(-c3cc(F)cc(OCC(C)C)c3)ccc2C(=O)NS(=O)(=O)c2ccn[nH]2)C1 (stereo not drawn) [Compound 749, 6-(3-fluoro-5-isobutoxy-phenyl)-2-(3-methoxy-1-piperidyl)-N-(1H-pyrazol-5-ylsulfonyl)pyridine-3-carboxamide]	+++ (“+++” means <3 uM)
COc1cccc2c1cc(C(=O)NS(=O)(=O)c1cccc(N)c1)n2Cc1c(C)cc(C)cc1C [Compound 120, N-(3-aminophenyl)sulfonyl-4-methoxy-1-[(2,4,6-trimethylphenyl)methyl]indole-2-carboxamide]	+++ (“+++” means <3 uM)
Cc1cc(C)c(Oc2nc(-n3cc(C(F)(F)F)cn3)ccc2C(=O)NS(=O)(=O)c2cccc(N)n2)c(C)c1 [Compound 691, N-[(6-amino-2-pyridyl)sulfonyl]-6-[4-(trifluoromethyl)pyrazol-1-yl]-2-(2,4,6-trimethylphenoxy)pyridine-3-carboxamide]	+++ (“+++” means <3 uM)
CC(C)COc1cc(F)cc(-c2ccc(C(=O)NS(=O)(=O)c3cccc(N)n3)c(N3CCCC3c3ccccn3)n2)c1 (stereo not drawn) [Compound 659, N-[(6-amino-2-pyridyl)sulfonyl]-6-(3-fluoro-5-isobutoxy-phenyl)-2-[2-(2-pyridyl)pyrrolidin-1-yl]pyridine-3-carboxamide]	++ (“++” means between 3 uM and 10 uM)
Cc1cc(C)c(Oc2nc(C3=CCC(C)(C)CC3)ccc2C(=O)NS(=O)(=O)c2ccc[nH]c2=O)c(C)c1 [Compound 573, 6-(4,4-dimethylcyclohexen-1-yl)-N-[(2-oxo-1H-pyridin-3-yl)sulfonyl]-2-(2,4,6-trimethylphenoxy)pyridine-3-carboxamide]	+++ (“+++” means <3 uM)
Cc1cc(C)c(Cn2c(C(=O)NS(=O)(=O)c3cccc(N)c3)cc3cccc(C)c32)c(C)c1 [Compound 194, N-(3-aminophenyl)sulfonyl-7-methyl-1-[(2,4,6-trimethylphenyl)methyl]indole-2-carboxamide]	+++ (“+++” means <3 uM)
Cc1cc(C)c(Oc2nc(-c3ccc(OCC(C)C)cc3)ccc2C(=O)NS(=O)(=O)c2cccc(N)n2)c(C)c1 [Compound 320, N-[(6-amino-2-pyridyl)sulfonyl]-6-(4-isobutoxyphenyl)-2-(2,4,6-trimethylphenoxy)pyridine-3-carboxamide]	+++ (“+++” means <3 uM)
Cc1cccc(C)c1Cn1nc(-c2ccccc2C#N)cc1C(=O)NS(=O)(=O)c1ccccc1 [Compound 99, N-(benzenesulfonyl)-5-(2-cyanophenyl)-2-[(2,6-dimethylphenyl)methyl]pyrazole-3-carboxamide]	+++ (“+++” means <3 uM)
Cc1cc(C)c(Cn2c(C(=O)NS(=O)(=O)c3ccccc3)cc3cc(F)ccc32)c(C)c1 [Compound 33, N-(benzenesulfonyl)-5-fluoro-1-[(2,4,6-trimethylphenyl)methyl]indole-2-carboxamide]	+++ (“+++” means <3 uM)
